Assays:
[1] = Inhibition of advanced glycation end products formation after 14 days; format: physicochemical
[2] = target: Aldo-keto reductase family 1 member B1 (Rattus norvegicus, UniProt P07943); test: Inhibition of rat lens aldose reductase

Compound	IC50 [1] [µM]	IC50 [2] [µM]
O=C(O)[C@H]1O[C@@H](Oc2cc(O)c3c(=O)cc(-c4ccc(O)cc4)oc3c2)[C@H](O)[C@@H](O)[C@@H]1O	107	1.28
COC(=O)[C@H]1O[C@@H](Oc2cc(O)c3c(=O)cc(-c4ccc(O)cc4)oc3c2)[C@H](O)[C@@H](O)[C@@H]1O		9.02
COC(=O)C[C@]1(O)C(=O)c2c(O)cc(O)cc2O[C@]1(OC)c1ccc(O)c(O)c1 (relative stereo) [ERIGEROFLAVANONE]		46.9
O=c1cc(-c2ccc(O)cc2)oc2cc(O)cc(O)c12 [APIGENIN]	89.9	6.67
O=c1c(O[C@@H]2O[C@H](CO)[C@@H](O)[C@H](O)[C@H]2O)c(-c2ccc(O)cc2)oc2cc(O)cc(O)c12 [ASTRAGALIN]	179	
O=c1c(O)c(-c2ccc(O)cc2)oc2cc(O)cc(O)c12 [KAEMPFEROL]		1.33
N=C(N)NN [PIMAGEDINE]	961	
C[C@@H]1O[C@@H](Oc2c(-c3ccc(O)c(O)c3)oc3cc(O)cc(O)c3c2=O)[C@H](O)[C@H](O)[C@H]1O [QUERCITRIN]		0.16
